Data published in patent publication US20090061452A1, “Polymorphisms in the human genes for OCT 1 and their use in diagnostic and therapeutic applications” (Epidauros Biotechnologie AG, priority 2002, published 2009).
Where a chain is given by its changes, count along the chain named. Entries after “also recorded” stand apart in the source; their conditions may differ.

Key:
OCT1 mutant Gly401Ser = target: T1, OCT1 mutant Gly401Ser (Homo sapiens, UniProt O15245, G401S); assay: Cyanine863-inhibitable uptake in Xenopus oocytes expressing OCT1 mutant Gly401Ser
T1 sequence (O15245 1-554 G401S): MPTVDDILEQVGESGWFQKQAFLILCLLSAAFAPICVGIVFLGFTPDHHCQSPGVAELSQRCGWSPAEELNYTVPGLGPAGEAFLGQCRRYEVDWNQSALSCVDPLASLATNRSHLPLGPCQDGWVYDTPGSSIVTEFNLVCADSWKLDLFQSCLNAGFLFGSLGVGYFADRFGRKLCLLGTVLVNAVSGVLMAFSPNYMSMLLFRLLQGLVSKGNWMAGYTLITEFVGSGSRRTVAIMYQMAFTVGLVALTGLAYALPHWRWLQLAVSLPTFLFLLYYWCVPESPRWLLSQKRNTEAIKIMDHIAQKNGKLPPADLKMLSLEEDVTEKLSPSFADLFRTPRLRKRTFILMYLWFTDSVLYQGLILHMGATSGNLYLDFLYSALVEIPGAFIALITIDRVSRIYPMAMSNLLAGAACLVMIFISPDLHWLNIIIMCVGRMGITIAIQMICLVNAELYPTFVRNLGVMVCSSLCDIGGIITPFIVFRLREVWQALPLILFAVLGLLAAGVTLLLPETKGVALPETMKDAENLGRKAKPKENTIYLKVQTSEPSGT
Experimental: (§1) OCT1 wt and OCT1 mutants were expressed in Xenopus oocytes and analyzed side-by-side. Cyanine863-inhibitable uptake of radioactively labeled organic cations was measured over 30 min. a) Uptake of 0.1 μM [^3H]MPP by different mutants in comparison to OCT1. […] In different batches of oocytes, the cyanine-863-inhibited uptake of 0.1 μM [^3H]MPP expressed by OCT1 wt varied between 0.9 and 1.8 μmol×oocyte^−1×30 min^−1. […] MPP uptake was measured at 9 different MPP concentrations and K0.5 values were determined by fitting the Hill equation to the data. […] Mean values±SD of three experiments are presented. *P<0.05, **P<0.01, ***P<0.001.
(§2) After defolliculation, the oocytes were injected with 10 ng/oocycte of the respective cRNAs. […] Oocytes were incubated for 30 min with the indicated substrate concentrations in the absence or presence of 100 μM of the inhibitor cyanine863. The mutants were compared with the OCT1 wt in side-by-side experiments using oocytes from the same batch (Arndt, Am J. Physiol. Renal Physiol. 281 (2001), F454-468). Each data point corresponded to 8-10 oocytes. K0.5 values were estimated by fitting the Hill equation to the data. Mean values±SD are presented. Significance of differences was tested by unpaired Student t-tests.

OCT1 mutant Cys88Arg = target: T2, OCT1 mutant Cys88Arg (Homo sapiens, UniProt O15245, C88R); assay: Cyanine863-inhibitable uptake in Xenopus oocytes expressing OCT1 mutant Cys88Arg
T2 sequence (O15245 1-554 C88R): T1 sequence (O15245 1-554 G401S) with C88R, S401G
Experimental: as §1, §2

OCT1 mutant Arg61Cys = target: T3, OCT1 mutant Arg61Cys (Homo sapiens, UniProt O15245, R61C); assay: Cyanine863-inhibitable uptake in Xenopus oocytes expressing OCT1 mutant Arg61Cys; assay type: cell-based; details: 0.1 μM [3H]MPP, 30 min
T3 construct: expressed in transfected cells; host or cells: Xenopus laevis oocytes injected with cRNA transcribed from the pOG1 vector
T3 sequence (O15245 1-554 R61C): T1 sequence (O15245 1-554 G401S) with R61C, S401G

OCT1 mutant Met420del = target: T4, OCT1 mutant Met420del (Homo sapiens, UniProt O15245, DEL420-420); assay: Cyanine863-inhibitable uptake in Xenopus oocytes expressing OCT1 mutant Met420del; assay type: cell-based
T4 construct: expressed in transfected cells; host or cells: Xenopus laevis oocytes injected with cRNA transcribed from the pOG1 vector
T4 sequence (O15245 with tags, fused parts or gaps DEL420-420): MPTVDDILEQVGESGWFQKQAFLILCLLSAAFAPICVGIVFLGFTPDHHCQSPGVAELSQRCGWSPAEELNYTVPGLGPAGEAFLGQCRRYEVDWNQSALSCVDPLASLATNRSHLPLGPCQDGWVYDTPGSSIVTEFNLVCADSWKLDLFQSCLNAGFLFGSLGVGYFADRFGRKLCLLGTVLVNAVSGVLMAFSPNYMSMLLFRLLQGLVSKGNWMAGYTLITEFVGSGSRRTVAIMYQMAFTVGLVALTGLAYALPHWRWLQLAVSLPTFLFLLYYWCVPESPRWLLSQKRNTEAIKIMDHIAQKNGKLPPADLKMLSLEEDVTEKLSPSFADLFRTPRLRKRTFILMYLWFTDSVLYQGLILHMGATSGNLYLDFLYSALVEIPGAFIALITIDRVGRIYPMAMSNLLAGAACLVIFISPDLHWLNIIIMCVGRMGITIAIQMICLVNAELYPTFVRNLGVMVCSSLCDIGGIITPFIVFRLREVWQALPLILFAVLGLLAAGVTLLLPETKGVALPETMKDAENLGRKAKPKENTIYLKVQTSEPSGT

OCT1 mutant Phe160Leu = target: T5, OCT1 mutant Phe160Leu (Homo sapiens, UniProt O15245); assay: Cyanine863-inhibitable uptake in Xenopus oocytes expressing OCT1 mutant Phe160Leu; assay type: cell-based
T5 construct: expressed in transfected cells; host or cells: Xenopus laevis oocytes injected with cRNA transcribed from the pOG1 vector
T5 sequence (O15245 1-554): T1 sequence (O15245 1-554 G401S) with S401G

[1] = Hill equation fit, 9 MPP concentrations

Row | SMILES | uptake reduced by (compared to OCT1 wt) (OCT1 mutant Gly401Ser; 0.1 μM [3H]MPP, 30 min) | uptake reduced by (compared to OCT1 wt) (OCT1 mutant Cys88Arg; 0.1 μM [3H]MPP, 30 min) | uptake reduced by (compared to OCT1 wt) (OCT1 mutant Arg61Cys) [%] | uptake compared to OCT1 wt (OCT1 mutant Met420del; 0.1 μM [3H]MPP, 30 min) | half maximal concentration for substrate activation (K0.5) compared to wild-type (OCT1 mutant Met420del; [1]) | maximal expressed transport rates compared to wild-type (OCT1 mutant Met420del; data not shown) | uptake compared to OCT1 wt (OCT1 mutant Phe160Leu; 0.1 μM [3H]MPP, 30 min) | half maximal concentration for substrate activation (K0.5) compared to wild-type (OCT1 mutant Phe160Leu; [1]) | maximal expressed transport rates compared to wild-type (OCT1 mutant Phe160Leu; data not shown) | reduced Vmax value compared to OCT1 wt (OCT1 mutant Phe160Leu; n=3) [%] | uptake compared to wt, relative to reduction of MPP uptake (OCT1 mutant Gly401Ser; 1 μM [3H]serotonin) | uptake compared to wt, relative to reduction of MPP uptake (OCT1 mutant Cys88Arg; 1 μM [3H]serotonin)
1 | C[n+]1ccc(-c2ccccc2)cc1 [MPP, 1-methyl-4-phenylpyridinium] | more than 98% | more than 98% | 70 | not significantly different from OCT1 wt | identical to wild-type | identical to wild-type | not significantly different from OCT1 wt | similar; also recorded: identical to wild-type | identical to wild-type | 32±16 | – | –
2 | NCCc1c[nH]c2ccc(O)cc12 [serotonin] | – | – | – | – | – | – | – | – | – | – | significantly less reduced | significantly less reduced
